Laboratory results as given in US8426403B2, “Gamma secretase modulators” (priority 2007, dated 2013).

Test system: Aβ42
Test: Secretase Reaction and Aβ Analysis in Whole Cells (total Aβ, Aβ40, Aβ42 by ECL sandwich immunoassay)
Type: cell-based
Settings: HEK293 cells overexpressing APP with Swedish and London mutations
Procedure: Secretase Reaction and Aβ Analysis in Whole Cells: HEK293 cells overexpressing APP with Swedish and London mutations were treated with the specified compounds for 5 hour at 37° C. in […] of DMEM medium containing 10% fetal bovine serum. At the end of the incubation, total Aβ, Aβ40 and Aβ42 were measured using electrochemiluminescence (ECL) based sandwich immunoassays. Total Aβ was determined using a pair of antibodies TAG-WO2 and biotin-4G8, Aβ40 was identified with antibody pairs TAG-G2-10 and biotin-4G8, while Aβ42 was identified with TAG-G2-11 and biotin-4G8. The ECL signal was measured using Sector Imager 2400 (Meso Scale Discovery).

IC50 (Homo sapiens, 5 hour at 37° C., ECL sandwich immunoassay, read-out: Ab42 IC50): 1.11 µM
Structure (SMILES): COc1cc(/C=C/C2=NC(=O)C(C)(c3ccc(F)cc3)N2)ccc1-n1cnc(C)c1 (centres unmarked) [Compound G4]
Abtotal/Ab42 selectivity (total Aβ versus Aβ42): 11 fold
